Test results reported in PubChem BioAssay AID493130 (Broad Institute, 2011).
Inconclusive results are not listed. The source made the active and inactive calls.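 How the source made its calls: active means signal-lowering compounds whose fitted half-maximal concentration is at most ten times their highest tested dose; inconclusive means flat fit between -30 and -70%, or poor fit; inactive means flat within 30%, signal rising, or potency beyond limit.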

Molecular target: POS-1 (Caenorhabditis elegans) binding to mex-3 RNA
Assay: inhibitors of POS-1/mex-3 RNA binding, dose response, counter-screen for MEX-5 RNA-binding inhibitor project, biochemical, fluorescence polarization, cherry-picked samples, set 2 (AID 493130);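 further: POS-1 as maltose binding protein fusion made in E. coli with FITC RNA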
Settings: POS-1/mex-3 RNA fluorescence polarization, 1 h

| Structure (SMILES) | AC50 |
| --- | --- |
| O=C1NC2=C(C(=O)CCC2)C(c2ccccc2[N+](=O)[O-])N1 (centres undefined) | > 10 µM (inactive) |
| CN1CC=C2C(C#N)=C(N)C(C#N)(C#N)[C@H](c3ccoc3)[C@H]2C1 | 5.4 µM |
| NS(=O)(=O)c1ccc(-c2ccc(C=C3C(=O)NC(=S)NC3=O)o2)cc1 | 8.28 µM |
| CC1C(=O)NN=C1C(=O)N/N=C\c1ccc(O)cc1O (centres undefined) | 9.42 µM |
| Cc1cc[n+](-c2[nH]c(=O)sc2/C=N/NC([S-])=Nc2ccccc2)cc1 | 2.39 µM |
| CC(=O)Nc1ccc(N2C(=O)c3cccc4c(O)ccc(c34)C2=O)cc1 | 1.41 µM |
| Cc1cc(C(=O)NNC(=O)CCCCC(=O)NNC(=O)c2cc(C)[nH]n2)n[nH]1 | > 10 µM (inactive) |
| O=C(N/N=C/C1C(=O)NC(=S)N(c2ccccc2)C1=O)c1cc(Br)c(O)c(Br)c1 (centres undefined) | 7.64 µM |
| O=C1CSC(=S)N1/N=C/c1cc(Br)c(O)c(Br)c1 | 10.2 µM |
| Cc1cccc(N=Nc2c(O)[nH]c3ccc(F)cc23)c1 | 1.87 µM |

Same assay, conditions: POS-1/mex-3 RNA fluorescence polarization, 1 h; at 10 µM (top of the series)

| Structure (SMILES) | activity change, negative = inhibition |
| --- | --- |
| CCOC(=O)[C@]1(C#N)[C@@H]2C=CC(C(N)=O)=CN2[C@@H](C(N)=O)[C@@H]1c1ccc(F)cc1 | inactive |
| CC1=Nc2ccc(C)cc2/C1=C/c1c(N)n2c(S(=O)(=O)C(C)C)nsc2nc1=O | inactive |
| Cc1ccc(N2C(=O)c3ccc(C(=O)O)cc3C2=O)cc1C | inactive |
| Cc1cc(C)c2ccc(=S)[nH]c2n1 | inactive |
| N#C/C(=C\c1cccc([N+](=O)[O-])c1)c1nnc2n1CCCCC2 | inactive |
| CC(C#N)(Nc1ccc(Cl)cc1)c1cccnc1 (centres undefined) | inactive |
| O=C1C(Cl)=C(NC2CCCCC2)C(=O)N1c1ccc(Cl)cc1 | inactive |
| COC(=O)c1cc(NC(=O)c2ccccc2)c(=O)oc1C | inactive |
| Cc1cc(=O)n2[nH]c(N)c(N=Nc3ccccc3F)c2n1 | inactive |
| O=c1cc[nH]c2c1ccc1c(=O)cc[nH]c12 | inactive |
| Cc1cc(C(=O)N/N=C/c2ccc(-c3ccc([N+](=O)[O-])cc3Cl)o2)n[nH]1 | inactive |
| Cc1cccc(C(=O)NNc2ncnc3c2cnn3C)c1 | inactive |
| Cc1ccc(C(=O)NNc2ncnc3c2cnn3C)cc1 | inactive |
| COc1ccccc1-n1c(C)nc2cc(C(=O)NCc3ccc4c(c3)OCO4)ccc21 | inactive |
| COc1ccc2c(c1)NC(c1ccc(N(C)C)cc1)c1cccn1-2 (centres undefined) | inactive |
| Cc1cc([N+](=O)[O-])nn1CC(=O)NNC(=S)Nc1ccc(F)cc1 | inactive |
| COC(=O)CCC(=O)OC1(C)C(=O)C2=CN(Cc3ccccc3)C(c3ccc(OC)cc3)=CC2=C(Br)C1=O (centres undefined) | inactive |
| O=C1N=c2ccccc2=C1c1sc(NS(=O)(=O)c2ccccc2)nc1O | inactive |
| CC(=O)Nc1ccc(S(=O)(=O)/N=C2/NC(=O)/C(=C\c3ccco3)S2)cc1 | inactive |
| Cc1cc(/C=C(\C#N)c2nc3ccccc3[nH]2)c(C)n1C | inactive |
| C=CCn1c(O)c(N=NC(=S)Nc2cccc(C)c2)c2ccccc21 | inactive |

| Structure (SMILES) | activity change, negative = inhibition |
| --- | --- |
| O=C(Nc1ccc(OCc2ccccc2)cc1)Nc1cccnc1 | inactive |
| CS(=O)(=O)c1nsc2nc(=O)c(/C=C3\C=Nc4ccccc43)c(N)n12 | inactive |
| Cc1cc(C(=O)N/N=C/c2ccc(-c3ccc([N+](=O)[O-])cc3C)o2)n[nH]1 | inactive |
| O=C1c2cccc3cccc(c23)C(=O)N1Cc1ccccc1 | inactive |
| Cc1cc2c(C)nc(N/N=C/c3ccc([N+](=O)[O-])cc3)nc2o1 | inactive |
| O=C(O)c1ccc(N2Cc3ccccc3C2)cc1O | inactive |
| CCCCCOP(=O)(OCCCCC)C1(NS(=O)(=O)c2ccccc2)C=CC(=O)c2ccccc21 (centres undefined) | inactive |
| c1cncc(C2CC(c3cccs3)n3ncnc3N2)c1 (centres undefined) | inactive |
| CCOc1nc(-c2ccccc2)c2cc(Br)ccc2n1 | inactive |
| CCc1nnc(NC(=O)CCN2C(=O)/C(=C/c3cc(OC)c(OC)c(OC)c3)SC2=S)s1 | inactive |
| COCCNc1ncnc2nc[nH]c12 | inactive |
| CCc1ccc(N2C(=O)NC(=O)/C(=C/c3cccn3CCOc3ccc(C(C)CC)cc3)C2=O)cc1 (centres undefined) | inactive |
| CCn1c(C)c(C(C)=O)c(N2CCN(c3ccccc3)CC2)nc1=S | inactive |
| CCN1C(=O)c2cccc3c(NC(=O)C4CCCCC4)ccc1c23 | inactive |
| COc1cc(/C=C2\CCCc3c2nc2ccccc2c3C(=O)O)cc(OC)c1O | inactive |
| NC(=O)C(=O)N/N=C/c1c2ccccc2cc2ccccc12 | inactive |
| N=c1c(C(=O)NC2CCCC2)cc2c(=O)n3ccccc3nc2n1C1CCCC1 | inactive |
| COC(=O)/C(C#N)=C/c1c(-c2ccccc2)nc2n1CCS2 | inactive |
| CCOC(=O)c1c(NS(=O)(=O)c2ccccc2)n(CCCOC)c2nc3ccccc3nc12 | inactive |
| Nc1ccc(Oc2ncccn2)cc1 | inactive |
| Oc1ccc(/C=N/Nc2ncnc3nc[nH]c23)cc1 | inactive |

| Structure (SMILES) | activity change, negative = inhibition |
| --- | --- |
| O=C(CCN1C(=O)/C(=C/c2ccccc2Cl)SC1=S)NNC(=O)c1ccccc1O | inactive |
| COc1cc(/C=C/c2nc(-c3ccccc3O)n[nH]2)cc(OC)c1OC | inactive |
| CCS(=O)(=O)C1=NN2C(=N)/C(=C\c3ccc(SCc4ccco4)o3)C(=O)N=C2S1 | inactive |
| Cc1cc(C)cc(N2C(=O)NC(=O)/C(=C/c3cccn3-c3ccc(Cl)cc3)C2=O)c1 | inactive |
| Cc1cc(C)c2cc3c(N)c(C(=O)N4CCc5ccccc5C4)sc3nc2c1 | inactive |
| O=C(NNC(=O)c1cccs1)c1csc(N2CCOCC2)n1 | inactive |
| COC(=O)c1cc2c(-c3ccccc3)cc3ccccn3c-2c1C(=O)OC | inactive |
| CC(=O)CSc1ncnc2nc[nH]c12 | inactive |
| Cc1ccc(S(=O)(=O)c2cc3c(=O)n4cccc(C)c4nc3n(C3CCCCC3)c2=N)cc1 | inactive |
| COc1ccc(/C=C/C(=O)N/C(=C\c2ccco2)C(=O)NCCc2nc3ccccc3[nH]2)cc1 | inactive |
| COc1ccc(C2NC(=O)N(CCCC(=O)O)C(C)=C2C(=O)OCc2ccccc2)cc1 (centres undefined) | inactive |
| Cn1c(CNC(=O)c2ccc(F)cc2)cc2ccccc21 | inactive |
| Cc1cc(C)cc(NC(=O)N(C)Cc2ccccc2)c1 | inactive |
| COc1ccc(CC(=O)NNc2ncnc3c2cnn3C)cc1OC | inactive |
| O=C1OC2(CCCC2)OC(=O)C1=Cc1c[nH]c2ccccc12 | inactive |
| COc1cc2c3c(c1OC)-c1cc(O)ccc1CC3NCC2 (centres undefined) | inactive |
| COC(=O)COc1ccc(C2Nc3c(Cl)ccc(C(=O)O)c3C3C=CCC32)cc1 (centres undefined) | inactive |
| Cc1cc(-c2nnc(SCC(=O)Nc3nccs3)o2)no1 | inactive |
| CNC(=O)c1c(NC(=O)c2nc3ccccc3s2)sc2c1CCC2 | inactive |
| Cc1ccc(-c2nc(C=Nc3cccc(C)c3)c(O)o2)cc1 | inactive |
| Cc1nc2cc(C(=O)O)ccc2n1-c1ccc(F)cc1F | inactive |

| Structure (SMILES) | activity change, negative = inhibition |
| --- | --- |
| COc1ccc(NC(=O)c2cccs2)cn1 | inactive |
| CC(C)(C)OC(=O)NCCCC1=CC2=CC(=O)C(C)(O)C(=O)C2=CO1 (centres undefined) | inactive |
| CN=c1scc(-c2ccco2)n1/N=C/c1ccc(O)c(O)c1 | inactive |
| O=C(NN=C1C2CC3CC1CC(Cl)(C3)C2)c1ccccn1 | inactive |
| CN1CCN(c2nc(-c3ccccc3)nc(-c3ccccc3)c2C#N)CC1 | inactive |
| COC(=O)c1cccc(-c2ccc(C(c3c(C)[nH][nH]c3=O)c3c(C)[nH][nH]c3=O)o2)c1 | inactive |
| COc1ccc(NS(=O)(=O)c2cccc(C(=O)NNC(=O)c3cc(S(N)(=O)=O)ccc3OC)c2)cc1 | inactive |
| Cn1c(=O)n(C)c2cc(/C=N/N=C3/NC(=O)C(CC(=O)O)S3)ccc21 (centres undefined) | inactive |
| CCN(CC)c1ccc(/C=N/N2CCN(c3ccccc3OC)CC2)cc1 | inactive |
| Oc1[nH]c(N=C2N=c3ccccc3=N2)c2ccccc12 | inactive |
| Nc1ccc(Cc2ccc(N)c(C(=O)O)c2)cc1C(=O)O | inactive |
| COC(=O)c1cccc2nc3c(C(C)O)cccc3nc12 (centres undefined) | inactive |
| CC(=O)Nc1ccc(N=NC2C(=O)N(C(N)=S)N=C2C)cc1 (centres undefined) | inactive |
| CC(C)(C)N(CC#CCC(O)(c1ccccc1)c1ccccc1)CCO | inactive |
| O=C(O)Cn1c(O)c(C2=c3ccccc3=NC2=O)sc1=O | inactive |
| CCOC(=O)C1(C)/C(=N/Nc2cccc(Cl)c2)C(=O)C(=O)N1c1ccccc1 (centres undefined) | inactive |
| CN1C(=O)NC(c2ccccc2Cl)C2=C1CC(C)(C)CC2=O (centres undefined) | inactive |
| CCCOc1ccc(C2=CSC3=NCCN23)cc1[N+](=O)[O-] | inactive |
| O=C(O)c1cccc(NC2=C(Cl)C(=O)c3ccccc3C2=O)c1 | inactive |
| CCN(CC)c1ccc2nc3ccccc3[n+](CC)c2c1 | inactive |
| Cc1nc2ccc(NC(=O)NC(=O)c3c(Cl)cccc3Cl)cc2o1 | inactive |
